Laboratory results reported in patent US8822449B2, “Substituted aminoindanes and analogs thereof, and the pharmaceutical use thereof” (Sanofi, priority 2008, dated 2014).

Molecular target: T1, sodium-proton exchanger of subtype 3 (NHE3) (Homo sapiens, UniProt P48764)
T1 construct: expressed in transfected cells
T1 sequence (P48764 26-834): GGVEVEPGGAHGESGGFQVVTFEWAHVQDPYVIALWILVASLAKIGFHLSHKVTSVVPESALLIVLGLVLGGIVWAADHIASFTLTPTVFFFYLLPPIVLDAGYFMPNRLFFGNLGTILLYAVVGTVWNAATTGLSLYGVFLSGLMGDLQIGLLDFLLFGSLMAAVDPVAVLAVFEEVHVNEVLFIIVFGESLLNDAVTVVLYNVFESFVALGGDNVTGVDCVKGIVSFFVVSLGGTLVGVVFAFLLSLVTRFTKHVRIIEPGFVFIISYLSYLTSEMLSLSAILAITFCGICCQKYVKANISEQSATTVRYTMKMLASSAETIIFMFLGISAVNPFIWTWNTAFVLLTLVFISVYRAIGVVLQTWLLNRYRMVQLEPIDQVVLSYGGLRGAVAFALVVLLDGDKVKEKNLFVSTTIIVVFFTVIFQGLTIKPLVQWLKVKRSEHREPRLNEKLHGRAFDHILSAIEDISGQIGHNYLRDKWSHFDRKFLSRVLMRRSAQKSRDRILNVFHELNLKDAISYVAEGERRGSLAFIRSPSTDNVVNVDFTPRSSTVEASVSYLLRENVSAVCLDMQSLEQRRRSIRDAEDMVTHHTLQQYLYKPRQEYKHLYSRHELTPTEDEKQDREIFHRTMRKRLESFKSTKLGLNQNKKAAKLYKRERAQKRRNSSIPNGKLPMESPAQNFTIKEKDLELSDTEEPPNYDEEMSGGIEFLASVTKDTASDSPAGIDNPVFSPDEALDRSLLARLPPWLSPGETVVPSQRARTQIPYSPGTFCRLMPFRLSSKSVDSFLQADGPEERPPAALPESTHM
Assay: Recovery of intracellular pH (pHi) after acidification in LAP1 cells stably expressing NHE3 (BCECF fluorescence, FLIPR)
Format: cell-based
Settings: LAP1 cells stably expressing NHE3; pH recovery after acidification; range 1 is % inhibition at 10 μM; read-out: Activity range (inhibitory effect on NHE3)

| Structure (SMILES) | IC50 | inhibition at 10 µM |
| --- | --- | --- |
| CC1(C)NC(=O)N(c2ccc(Cl)c(O[C@H]3c4cc(Cl)cc(F)c4C[C@@H]3N3CC[C@@H](O)C3)c2)C1=O [Example 436, 3-{4-chloro-3-[(1S,2S)-6-chloro-4-fluoro-2-((R)-3-hydroxypyrrolidin-1-yl)indan-1-yloxy]phenyl}-5,5-dimethylimidazolidine-2,4-dione] | 1 to 10 µM | – |
| CC(=O)Nc1cccc(O[C@H]2c3cc(Cl)cc(Cl)c3C[C@@H]2N2CCN(C)CC2)c1 [Example 697, N-{3-[trans-(1S,2S)-4,6-dichloro-2-(4-methylpiperazin-1-yl)indan-1-yloxy]phenyl}acetamide] | 1 to 10 µM | – |
| Fc1ccc(O[C@H]2c3ccccc3CC[C@@H]2N2CCOCC2)c(-c2ccno2)c1 (racemic) [Example 507, 4-[rac-trans-(1,2)-1-(4-fluoro-2-isoxazol-5-ylphenoxy)-1,2,3,4-tetrahydronaphthalen-2-yl]morpholine] | – | 20 to 50% |
| CC(C)c1nc(C(C)(C)C)cn1-c1ccc(O[C@H]2c3cc(Cl)cc(F)c3C[C@@H]2N2CC[C@@H](O)C2)cc1 [Example 724, (R)-1-{trans-(1S,2S)-1-[4-(4-tert-Butyl-2-isopropyl-imidazol-1-yl)-phenoxy]-6-chloro-4-fluoro-indan-2-yl}-pyrrolidin-3-ol] | – | 20 to 50% |
| NC1CCN([C@@H]2Cc3ccccc3[C@H]2Oc2ccc(NC(=O)OCc3ccccc3)cc2)C1 (mixture of isomers) [Example 241, {4-[rac-trans-(1,2)-2-(3-aminopyrrolidin-1-yl)indan-1-yloxy]phenyl}carbamic acid benzyl ester] | 1 to 10 µM | – |
| CCc1ccc(O[C@@H]2c3ccccc3C[C@H]2N2CCC(CN)C2)c(C(C)(C)C)c1 (mixture of isomers) [Example 610, C-{1-[rac-trans-(1,2)-1-(2-tert-butyl-4-ethylphenoxy)indan-2-yl]pyrrolidin-3-yl}methylamine] | 1 to 10 µM | – |
| Clc1ccc(O[C@@H]2c3ccccc3C[C@H]2N2C[C@H]3CNC[C@H]3C2)cn1 (racemic) [Example 18, 2-[rac-trans-(1,2)-1-(6-chloropyridin-3-yloxy)indan-2-yl]octahydropyrrolo[3,4-c]pyrrole] | 1 to 10 µM | – |
| CN1CCN(c2cc(O[C@H]3c4cc(Cl)cc(Cl)c4C[C@@H]3N3CC[C@@H](O)C3)ccc2Cl)C1=O [Example 311, 1-{2-chloro-5-[(1S,2S)-4,6-dichloro-2-((R)-3-hydroxypyrrolidin-1-yl)indan-1-yloxy]phenyl}-3-methylimidazolidin-2-one] | – | 20 to 50% |
| Cn1ccn(-c2cc(O[C@H]3c4cc(Cl)cc(Cl)c4C[C@@H]3N3CC[C@@H](O)C3)ccc2Cl)c1=O [Example 310, 1-{2-chloro-5-[(1S,2S)-4,6-dichloro-2-((R)-3-hydroxypyrrolidin-1-yl)indan-1-yloxy]phenyl}-3-methyl-1,3-dihydroimidazol-2-one] | – | 20 to 50% |
| CS(=O)(=O)c1ccc(O[C@H]2c3cccc(F)c3C[C@@H]2N2CCCC2)cc1 (racemic) [Example 285, 1-[rac-trans-(1,2)-4-fluoro-1-(4-methanesulfonylphenoxy)indan-2-yl]pyrrolidine] | 1 to 10 µM | – |
| N[C@@H]1CCCN([C@H]2CCc3ccccc3[C@@H]2Oc2ccc(Br)cc2-c2cc[nH]n2)C1 (racemic) [Example 117, (R)-1-{rac-trans-(1,2)-1-[4-bromo-2-(1H-pyrazol-3-yl)phenoxy]-1,2,3,4-tetrahydronaphthalen-2-yl}piperidin-3-ylamine] | 1 to 10 µM | – |
| CCc1ccc(O[C@@H]2c3ccccc3C[C@H]2N2CCC(N)C2)c(C(C)(C)C)c1 (mixture of isomers) [Example 267, 1-[rac-trans-(1,2)-1-(2-tert-butyl-4-ethylphenoxy)indan-2-yl]pyrrolidin-3-ylamine] | 1 to 10 µM | – |
| NC(=O)c1ccc(O[C@@H]2c3ccccc3C[C@H]2N2CCC[C@@H](N)C2)cc1 (racemic) [Example 525, 4-[rac-trans-(1,2)-2-((R)-3-aminopiperidin-1-yl)indan-1-yloxy]benzamide] | 1 to 10 µM | – |
| NS(=O)(=O)c1cc(Cl)c(O[C@H]2c3ccccc3C[C@@H]2N2CCCC2)c(Cl)c1 (racemic) [Example 402, 3,5-dichloro-4-(rac-trans-(1,2)-2-pyrrolidin-1-ylindan-1-yloxy)benzenesulfonamide] | 1 to 10 µM | – |
| Cc1ccc(F)c(O[C@H]2c3ccccc3CC[C@@H]2N2CCC[C@@H](N)C2)c1 (racemic) [Example 43, (R)-1-[rac-trans-(1,2)-1-(2-fluoro-5-methylphenoxy)-1,2,3,4-tetrahydronaphthalen-2-yl]piperidin-3-ylamine] | – | 20 to 50% |
| COc1cccc(F)c1O[C@@H]1c2ccccc2C[C@H]1N(C)C1CCNCC1 (racemic) [Example 215, [rac-trans-(1,2)-1-(2-fluoro-6-methoxyphenoxy)indan-2-yl]methylpiperidin-4-ylamine] | 1 to 10 µM | – |

The next lines start with the values.

| IC50 | inhibition at 10 µM | Structure (SMILES) |
| --- | --- | --- |
| 1 to 10 µM | – | Cc1cc(O[C@@H]2c3ccccc3C[C@H]2N2CCC(CN)C2)cc(C)c1C#N (mixture of isomers) [Example 539, 4-[rac-trans-(1,2)-2-(3-aminomethylpyrrolidin-1-yl)indan-1-yloxy]-2,6-dimethylbenzonitrile] |
| < 1 µM | – | CS(=O)(=O)c1ccc(O[C@@H]2c3cc(F)cc(Cl)c3C[C@H]2N2CCC[C@@H](N)C2)cc1 (racemic) [Example 91, (R)-1-[rac-trans-(1,2)-4-chloro-6-fluoro-1-(4-methanesulfonylphenoxy)indan-2-yl]piperidin-3-ylamine] |
| < 1 µM | – | NS(=O)(=O)c1ccc(O[C@H]2c3ccccc3C[C@@H]2N2CCCC2)c(F)c1 (racemic) [Example 451, 3-fluoro-4-(2-pyrrolidin-1-ylindan-1-yloxy)benzenesulfonamide] |
| < 1 µM | – | CS(=O)(=O)c1ccc(O[C@H]2c3cc(F)cc(Cl)c3C[C@@H]2N2CCNCC2)cc1 (racemic) [Example 283, 1-[rac-trans-(1,2)-4-chloro-6-fluoro-1-(4-methanesulfonylphenoxy)indan-2-yl]piperazine] |
| 1 to 10 µM | – | NCC1CCN([C@@H]2Cc3ccccc3[C@H]2Oc2ccc(C(N)=O)cc2)CC1 (racemic) [Example 548, 4-[rac-trans-(1,2)-2-(4-aminomethylpiperidin-1-yl)indan-1-yloxy]benzamide] |
| < 1 µM | – | Cc1nnc(C)n1-c1ccc(O[C@H]2c3cc(Cl)cc(Cl)c3C[C@@H]2NC2CCCC2)c(F)c1 [Example 746, Cyclopentyl-{trans-(1S,2S)-4,6-dichloro-1-[4-(3,5-dimethyl-[1,2,4]triazol-4-yl)-2-fluoro-phenoxy]-indan-2-yl}-amine] |
| 1 to 10 µM | – | N#Cc1ccc(O[C@@H]2c3ccccc3C[C@H]2N2CCC(N)C2)c(Cl)c1 (mixture of isomers) [Example 543, 4-[rac-trans-(1,2)-2-(3-aminopyrrolidin-1-yl)indan-1-yloxy]-3-chlorobenzonitrile] |
| < 1 µM | – | CN1CC(=O)N(c2ccc(Cl)c(O[C@H]3c4cc(Cl)cc(Cl)c4C[C@@H]3N3CC[C@@H](O)C3)c2)C1=O [Example 430, 3-{4-chloro-3-[(1S,2S)-4,6-dichloro-2-((R)-3-hydroxypyrrolidin-1-yl)indan-1-yloxy]phenyl}-1-methylimidazolidine-2,4-dione] |
| < 1 µM | – | CN1CCC2CN([C@H]3Cc4c(Cl)cc(Cl)cc4[C@@H]3Oc3ccc(S(C)(=O)=O)cc3)CC21 (single isomer, unassigned) [Example 581] |
| < 1 µM | – | CN1CCN(c2ccc(O[C@H]3c4cc(Cl)cc(Cl)c4C[C@@H]3N3CC[C@@H](O)C3)c(F)c2)C1=O [Example 330, 1-{4-[trans-(1S,2S)-4,6-dichloro-2-((R)-3-hydroxypyrrolidin-1-yl)indan-1-yloxy]-3-fluorophenyl}-3-methylimidazolidin-2-one] |
| < 1 µM | – | Cc1nnc(C(C)C)n1-c1ccc(O[C@H]2c3cc(Cl)cc(Cl)c3C[C@@H]2N2CC[C@@H](O)C2)cc1 [Example 715, (R)-1-{trans-(1S,2S)-4,6-Dichloro-1-[4-(3-isopropyl-5-methyl-[1,2,4]triazol-4-yl)-phenoxy]-indan-2-yl}-pyrrolidin-3-ol] |
| < 1 µM | – | CN1CCN(c2ccc(F)c(O[C@H]3c4cc(Cl)cc(Cl)c4C[C@@H]3N3CC[C@@H](O)C3)c2)C1=O [Example 314, 1-{3-[(1S,2S)-4,6-dichloro-2-((R)-3-hydroxypyrrolidin-1-yl)indan-1-yloxy]-4-fluorophenyl}-3-methylimidazolidin-2-one] |
| < 1 µM | – | Cc1nnc(C)n1-c1ccc(O[C@H]2c3cc(Cl)cc(Cl)c3C[C@@H]2N2CCCN(C)CC2)c(Cl)c1 [Example 345, 1-{trans-(1S,2S)-4,6-dichloro-1-[2-chloro-4-(3,5-dimethyl-[1,2,4]triazol-4-yl)phenoxy]indan-2-yl}-4-methyl-[1,4]diazepane] |
| < 1 µM | – | N[C@@H]1CCCN([C@@H]2Cc3ccccc3[C@H]2Oc2ccc(-n3cncn3)cc2)C1 (racemic) [Example 62, (R)-1-[rac-trans-(1,2)-1-(4-[1,2,4]triazol-1-ylphenoxy)indan-2-yl]piperidin-3-ylamine] |
